Test [1] addresses T1, Fructose-bisphosphate aldolase A (Oryctolagus cuniculus, UniProt P00883).
T1 sequence (P00883 whole entry): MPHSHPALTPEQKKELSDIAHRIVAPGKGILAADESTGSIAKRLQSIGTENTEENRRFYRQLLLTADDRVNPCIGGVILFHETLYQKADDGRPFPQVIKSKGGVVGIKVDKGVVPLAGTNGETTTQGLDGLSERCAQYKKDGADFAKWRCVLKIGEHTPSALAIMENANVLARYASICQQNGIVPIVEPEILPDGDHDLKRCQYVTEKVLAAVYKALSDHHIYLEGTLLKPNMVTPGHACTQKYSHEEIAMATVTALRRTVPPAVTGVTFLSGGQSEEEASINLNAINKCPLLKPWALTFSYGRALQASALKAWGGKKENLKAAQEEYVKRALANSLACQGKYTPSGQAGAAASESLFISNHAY
Briefly: Inhibition of rabbit muscle […] class 1 Fba expressed in Escherichia coli.

In test [2] the target is T2, Fructose-bisphosphate aldolase (Helicobacter pylori (strain ATCC 700392 / 26695), UniProt P56109).
T2 sequence (P56109 whole entry): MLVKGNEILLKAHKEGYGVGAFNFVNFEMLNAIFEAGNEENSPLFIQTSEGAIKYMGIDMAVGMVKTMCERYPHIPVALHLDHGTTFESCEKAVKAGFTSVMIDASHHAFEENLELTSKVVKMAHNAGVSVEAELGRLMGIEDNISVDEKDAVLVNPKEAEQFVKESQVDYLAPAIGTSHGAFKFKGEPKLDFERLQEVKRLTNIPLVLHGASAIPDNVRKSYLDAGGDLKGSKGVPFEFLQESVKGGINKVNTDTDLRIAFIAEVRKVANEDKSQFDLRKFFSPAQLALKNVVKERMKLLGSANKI
Briefly: Inhibition of Helicobacter pylori recombinant zinc dependent class 2 Fba expressed in Escherichia coli JM109.

Test [3] has as its target T3, Fructose-bisphosphate aldolase (Candida albicans (strain SC5314 / ATCC MYA-2876), UniProt Q9URB4).
T3 sequence (Q9URB4 whole entry): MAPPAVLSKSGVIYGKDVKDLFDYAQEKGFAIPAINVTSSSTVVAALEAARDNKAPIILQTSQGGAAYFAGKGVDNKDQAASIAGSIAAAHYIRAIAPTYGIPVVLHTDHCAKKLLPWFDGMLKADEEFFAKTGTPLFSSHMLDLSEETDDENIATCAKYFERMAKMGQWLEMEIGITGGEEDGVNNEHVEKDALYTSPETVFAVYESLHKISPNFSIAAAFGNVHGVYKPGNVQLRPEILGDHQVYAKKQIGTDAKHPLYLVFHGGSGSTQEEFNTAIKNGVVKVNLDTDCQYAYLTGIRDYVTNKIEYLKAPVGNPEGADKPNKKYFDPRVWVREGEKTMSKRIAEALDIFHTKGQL
Briefly: Inhibition of Candida albicans zinc dependent class 2 Fba.

These results are taken from BindingDB's records for doi:10.1021/jm1009814 (Paris-Sud University, 2010).

Take `O=C([C@H](O)COP(=O)(O)O)[C@H](O)C(O)COP(=O)(O)O` (stereo partly drawn) [1,6-di-O-phosphono-D-fructose]: the inhibition constant Ki stood at 15 µM in test [1], 17 µM in test [2] and 85 µM in test [3].
With `CCCCCC(=O)OCCCCN(O)C(=O)COP(=O)(O)O` [4-(N-hydroxy-2-(phosphonooxy)acetamido)butyl hexanoate], the Ki in test [1] was found to be 850 µM.

As a reminder, the Ki is the equilibrium dissociation constant of an inhibitor or competing ligand from its target.
